In one assay the target is T1, Erk1 (Homo sapiens, UniProt P27361).
T1 construct: purchased Millipore 14-439
Nature of the assay: Protein Mass Modification Assay (intact protein MALDI, 60 min, 10-fold excess of compound). Format: binding. The protocol: Protein Mass Modification Assay
Intact protein: Erk1 from Millipore (Cat. No. 14-439) was incubated for 60 min. at room temperature with a 10-fold excess of test compound to protein. 4 μL aliquots of the resulting mixture were diluted with 15 μL of 0.2% TFA prior to micro C4 ZipTipping directly onto the MALDI target using sinapinic acid as the desorption matrix (10 mg/ml in 0.1% TFA:Acetonitrile 50:50, v/v). The centroid mass of the target protein in the control sample was compared with the centroid mass of the target protein incubated with compound. A shift in the centroid mass of the treated protein compared to the untreated protein was divided by the molecular weight of the compound. This number corresponds to the percentage of modified protein after one hour incubation. Results from this assay are reported in Table A under the column “ERK1 Mass Mod (%).”

The target in the next assay is T2, MEK1 activated ERK1 (Homo sapiens, UniProt P27361).
T2 construct: purchased Millipore (Billerica, Mass.) 14-439-K
The experiment in a line: Omnia continuous-read kinase assay for potency against MEK1 activated ERK1. Format: biochemical. In a few lines: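 Apparent IC50 came from initial reaction slopes (RFU vs time) plotted against log inhibitor with a variable-slope fit. Reactions were started with ERK1 (4 nM final) added to 50 μM ATP, roughly at its appKM, and 10 μM Sox-conjugated ST17 peptide in 20 mM Tris pH 7.5, 5 mM MgCl2. Fluorescence was monitored every 71 seconds.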

In assay [1] the test system is ERK1/2 phosphorylation of p90RSK in HT29 cells. Nature of the assay: pRSK MSD Assay in HT29 cells. As to conditions: Homo sapiens, HT-29, read-out: ERK1/ERK2 PRSK MSD HT29 EC50. Format: cell-based. In a few lines:
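Phospho-RSK level, read by electrochemiluminescence on RSK-antibody-coated MSD plates with a phospho-RSK/Sulfo-tag detection pair, reports cellular ERK1/2 activity. HT29 cells, kept overnight in 0.1% FBS medium, were exposed to compound for 120 min at 37° C before lysis.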

For assay [2], the system named is HT-29 cells (colorectal adenocarcinoma). Nature of the assay: Inhibition of cancer cell proliferation, HT-29 (CellTiterGlo, 72 hours). Format: cell-based. The note with it: Homo sapiens. In a few lines:
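Proliferation over 72 h at 37° C was read by CellTiterGlo luminescence, translated to cell counts with a cell-density standard curve (390–50,000 cells). Compound added as 3-fold dilutions from a 5,000 nM two-fold stock to 3000 seeded HT-29 cells; GI50 from percent inhibition relative to untreated wells.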

The test system of assay [3] is A375 cells (malignant melanoma). Nature of the assay: Inhibition of cancer cell proliferation, A375 (CellTiterGlo, 72 hours). Format: cell-based. As to conditions: Homo sapiens, A-375. In a few lines: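 GI50 derived from % growth inhibition relative to untreated wells, after luminescence (CellTiterGlo, 10 min) was converted to cell counts using a standard curve. Compound given as 3-fold dilutions from a 2× 5,000 nM stock in serum-free DMEM; 3000 A375 cells/well, 72 h culture at 37 °C.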
On the technique in general: Cellular ATP, detected with luciferase, serves as a proxy for viable cell number.

Assay [4] concerns ERK1/2 phosphorylation of p90RSK in A375 cells. The experiment in a line: Detection of total and phosphor-RSK by MSD ELISA (A375). Format: cell-based. The note with it: Homo sapiens, A-375, read-out: ERK1/ERK2 PRSK A375 EC50. In a few lines:
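Electrochemiluminescent MSD ELISA: common RSK capture antibody, with pRSK Ser380 or total RSK detection antibodies plus SulfoTag secondaries. Samples were lysates of A375 cells exposed to compound for 2 h at 37° C after overnight culture in 0.1% FBS DMEM.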

Assay [5] has as its system ERK1/2 phosphorylation of p90RSK in HCT116 cells. Nature of the assay: Detection of total and phospho-RSK by MSD ELISA (HCT116). Format: cell-based. The note with it: Homo sapiens, HCT-116, read-out: ERK1/ERK2 PRSK HCT116 EC50. In a few lines:
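ERK1/2 activity read in cells as p90RSK phosphorylation: lysates from HCT116 cells given compound for 2 h at 37° C were captured on MSD plates. Detection used a pSer380 RSK or a total RSK antibody with SulfoTag secondaries.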
For orientation: ELISA stands for enzyme-linked immunosorbent assay.

Setting [6] is: MEK1 activated ERK1, ATP at KM, read-out: ERK1 Omnia WT ATP KM IC50.

From US9561228B2 (Celgene Avilomics Research, Inc., priority 2013, dated 2017) come the findings set out here.

Like-named read-outs stand apart in the source and are kept apart here.

T2 sequence (P27361 whole entry): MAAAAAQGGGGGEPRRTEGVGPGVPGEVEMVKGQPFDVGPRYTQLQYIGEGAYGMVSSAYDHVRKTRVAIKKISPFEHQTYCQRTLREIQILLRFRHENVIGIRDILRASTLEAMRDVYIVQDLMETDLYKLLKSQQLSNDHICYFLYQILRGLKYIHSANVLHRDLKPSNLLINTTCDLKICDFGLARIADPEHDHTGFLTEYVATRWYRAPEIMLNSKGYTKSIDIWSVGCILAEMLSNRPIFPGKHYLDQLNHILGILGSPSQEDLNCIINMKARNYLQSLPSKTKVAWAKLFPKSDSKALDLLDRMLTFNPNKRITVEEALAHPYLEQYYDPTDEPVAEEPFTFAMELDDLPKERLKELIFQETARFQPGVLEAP
T1 sequence (P27361 whole entry): as above

As to `C=CC(=O)Nc1ccccc1Nc1nc(N[C@H]2CCC[C@@H](CO)C2)ncc1Cl` (racemic) [Compound I-121, Rac-cis-N-(2-((5-chloro-2-((3-(hydroxymethyl)cyclohexyl)amino)pyrimidin-4-yl)amino)phenyl)acrylamide], the “ERK1 Mass Mod (%)” value on Erk1 was “E (key: E: a mass modification of ≧70%; F: a mass modification of 31-69%; G: a mass modification ≦30%)”. The IC50 – broadly, the point on the concentration scale where inhibition reaches its midpoint – on MEK1 activated ERK1 (setting [6]) was less than 100 nM. Also, in assay [1], the EC50 is less than 100 nM. In addition, the GI50 – broadly, the concentration at which growth is held to half of that of the control – in assay [2] is less than 100 nM.
As for `C=CC(=O)Nc1cc(C)ccc1Nc1nc(N[C@H]2CCCN(C(=O)CF)C2)ncc1C(F)(F)F` [Compound I-43, (S)—N-(2-((2-((1-(2-Fluoroacetyl)piperidin-3-yl)amino)-5-(trifluoromethyl)pyrimidin-4-yl)amino)-5-methylphenyl)acrylamide], on Erk1, the “ERK1 Mass Mod (%)” value is reported as “E (a mass modification of ≧70%)”. The molecule also had a GI50 in assay [3] of less than 100 nM.
Take `C=CC(=O)Nc1ccccc1Nc1nc(Nc2cc(C(=O)NOCCO)ccc2C)ncc1C(F)(F)F` [Compound I-73, 3-((4-((2-Acrylamidophenyl)amino)-5-(trifluoromethyl)pyrimidin-2-yl)amino)-N-(2-hydroxyethoxy)-4-methylbenzamide]: the “ERK1 Mass Mod (%)” value at Erk1 was “E (a mass modification of ≧70%)”. Also, the IC50 at MEK1 activated ERK1 (setting [6]) was 101 to 500 nM. In addition, in assay [1], the EC50 lay in the range of 101 to 500 nM. Also, in assay [2], the GI50 is 101 to 500 nM.
With `C=CC(=O)Nc1ccccc1Nc1nc(N[C@H]2CCC[C@@H](C(N)=O)C2)ncc1C(F)(F)F` [Compound I-118, (1R,3S)-3-((4-((2-acrylamidophenyl)amino)-5-(trifluoromethyl)pyrimidin-2-yl)amino)cyclohexanecarboxamide], the “ERK1 Mass Mod (%)” value at Erk1 was “E (a mass modification of ≧70%)”. In addition, the EC50 in assay [1] was less than 100 nM. For the same molecule, the GI50 in assay [2] and in assay [3] was 101 to 500 nM each time.
Take `C=CC(=O)Nc1ccccc1Nc1nc(N[C@H]2CCC[C@@H](C(N)=O)C2)ncc1Cl` [Compound I-120, (1R,3S)-3-((4-((2-acrylamidophenyl)amino)-5-chloropyrimidin-2-yl)amino)cyclohexanecarboxamide]: on Erk1, the “ERK1 Mass Mod (%)” value is recorded as “E (a mass modification of ≧70%)”. Also, the EC50 in assay [1] is less than 100 nM. Moreover, the values for the GI50 in assay [2] and in assay [3] were less than 100 nM and 101 to 500 nM, respectively.
With `C=CC(=O)Nc1cc(OC)ccc1Nc1nc(Nc2ccc(N3CCC[C@@H]3C(N)=O)cc2C#N)ncc1Cl` [Compound I-180, (R)-1-(4-((4-((2-acrylamido-4-methoxyphenyl)amino)-5-chloropyrimidin-2-yl)amino)-3-cyanophenyl)pyrrolidine-2-carboxamide], the “ERK1 Mass Mod (%)” value at Erk1 is “E (a mass modification of ≧70%)”. Besides, on MEK1 activated ERK1 (setting [6]), the IC50 fell in the range of 501 to 999 nM. Further, the EC50 in assay [1] lay within 501 to 999 nM. In assay [2], this molecule showed a GI50 of more than 1000 nM.
With `C=CC(=O)Nc1ccccc1Nc1nc(N[C@H]2CCCN(C(=O)CCCC(=O)NCCCOCCOCCOCCCNC(=O)CCCC[C@@H]3SC[C@@H]4NC(=O)N[C@@H]43)C2)ncc1Cl` [Compound I-303, 5-((S)-3-((4-((2-acrylamidophenyl)amino)-5-chloropyrimidin-2-yl)amino)piperidin-1-yl)-5-oxo-N-(15-oxo-19-((3aS,4S,6aR)-2-oxohexahydro-1H-thieno[3,4-d]imidazol-4-yl)-4,7,10-trioxa-14-azanonadecyl)pentanamide], the “ERK1 Mass Mod (%)” value on Erk1 is given as “G (a mass modification ≦30%)”. The EC50 in assay [1] was more than 1000 nM. This molecule also showed a GI50 in assay [2] of more than 1000 nM.
Regarding `C=CC(=O)Nc1cc(C)ccc1Nc1nc(Nc2cc(OC)ncn2)ncc1C(F)(F)F` [Compound I-348, N-(2-((2-((6-methoxypyrimidin-4-yl)amino)-5-(trffluoromethyl)pyrimidin-4-yl)amino)-5-methylphenyl)acrylamide], the “ERK1 Mass Mod (%)” value at Erk1 was “G (a mass modification ≦30%)”. The EC50 in assay [1] is 101 to 500 nM; in assay [4], 501 to 999 nM; in assay [5], 501 to 999 nM.
For the molecule `COc1cc(Nc2ncc(C(F)(F)F)c(Nc3ccc(C)cc3N)n2)c(C)cn1` [Compound I-353, N^4-(2-amino-4-methylphenyl)-N^2-(2-methoxy-5-methylpyridin-4-yl)-5-(trifluoromethyl)pyrimidine-2,4-diamine], the “ERK1 Mass Mod (%)” value on Erk1 is “G (a mass modification ≦30%)”. The EC50 in assay [4] and in assay [5] was more than 1000 nM in each case.
In the case of `C=CC(=O)Nc1cc(C)ccc1Nc1nc(Nc2nc(O)ncc2Cl)ncc1C(F)(F)F` [Compound I-363, N-(2-((2-((5-chloro-2-hydroxypyrimidin-4-yl)amino)-5-(trifluoromethyl)pyrimidin-4-yl)amino)-5-methylphenyl)acrylamide], the “ERK1 Mass Mod (%)” value at Erk1 is on record as “E (a mass modification of ≧70%)”. Further, the EC50 in assay [1], in assay [4] and in assay [5] was more than 1000 nM in each case.
On to `C=CC(=O)Nc1cc(C)ccc1Nc1nc(Nc2cc(O)ncc2C)ncc1C(F)(F)F` [Compound I-365, N-(2-((2-((2-hydroxy-5-methylpyridin-4-yl)amino)-5-(trifluoromethyl)pyrimidin-4-yl)amino)-5-methylphenyl)acrylamide], for which the “ERK1 Mass Mod (%)” value on Erk1 was “E (a mass modification of ≧70%)”. Moreover, the EC50 in assay [1], in assay [4] and in assay [5] was more than 1000 nM in each case.
As for `C=CC(=O)Nc1cc(CN2CCN(C)CC2)ccc1Nc1nc(Nc2cc(OC)ncc2C)ncc1C(F)(F)F` [Compound I-380, N-(2-((2-((2-methoxy-5-methylpyridin-4-yl)amino)-5-(trifluoromethyl)pyrimidin-4-yl)amino)-5-((4-methylpiperazin-1-yl)methyl)phenyl)acrylamide], at Erk1, the “ERK1 Mass Mod (%)” value is recorded as “E (a mass modification of ≧70%)”. Also, on MEK1 activated ERK1 (ATP at KM, WT), the 50% inhibitory concentration (IC50) was more than 1000 nM. Further, the values for the EC50 in assay [1] and in assay [4] were 501 to 999 nM and more than 1000 nM, respectively.
On to `C=CC(=O)Nc1cc(C(=O)N2CCN(C(=O)CO)CC2)ccc1Nc1nc(Nc2cc(OC)ncc2C)ncc1C(F)(F)F` [Compound I-402, N-(5-(4-(2-hydroxyacetyl)piperazine-1-carbonyl)-2-((2-((2-methoxy-5-methylpyridin-4-yl)amino)-5-(trifluoromethyl)pyrimidin-4-yl)amino)phenyl)acrylamide], for which, on Erk1, the “ERK1 Mass Mod (%)” value is “E (a mass modification of ≧70%)”. For the same molecule, the EC50 was in the range of 501 to 999 nM in assay [1], 501 to 999 nM in assay [4] and 101 to 500 nM in assay [5].
As to `C=CC(=O)Nc1cc(OCC(=O)N2CCN(c3ncccn3)CC2)ccc1Nc1nc(Nc2cc(OC)ncc2C)ncc1C(F)(F)F` [Compound I-403, N-(2-((2-((2-methoxy-5-methylpyridin-4-yl)amino)-5-(trifluoromethyl)pyrimidin-4-yl)amino)-5-(2-oxo-2-(4-(pyrimidin-2-yl)piperazin-1-yl)ethoxy)phenyl)acrylamide], at Erk1, the “ERK1 Mass Mod (%)” value was “E (a mass modification of ≧70%)”. For the same molecule, the EC50 is less than 100 nM in assay [1], 101 to 500 nM in assay [4] and 101 to 500 nM in assay [5].
